Data on 13 compounds can be found in patent publication US20260125389A1, “MEMBRANE-ASSOCIATED TYROSINE AND THREONINE KINASE INHIBITOR AND USE THEREOF” (HAINAN SIMCERE ZAIMING PHARMACEUTICAL CO., LTD., priority 2022, published 2026).

The term IC50 denotes the concentration at which inhibition is half-maximal.

For the first test, the target named is T1, PKMYT1 (Homo sapiens, UniProt Q99640).
T1 sequence (Q99640 1-499): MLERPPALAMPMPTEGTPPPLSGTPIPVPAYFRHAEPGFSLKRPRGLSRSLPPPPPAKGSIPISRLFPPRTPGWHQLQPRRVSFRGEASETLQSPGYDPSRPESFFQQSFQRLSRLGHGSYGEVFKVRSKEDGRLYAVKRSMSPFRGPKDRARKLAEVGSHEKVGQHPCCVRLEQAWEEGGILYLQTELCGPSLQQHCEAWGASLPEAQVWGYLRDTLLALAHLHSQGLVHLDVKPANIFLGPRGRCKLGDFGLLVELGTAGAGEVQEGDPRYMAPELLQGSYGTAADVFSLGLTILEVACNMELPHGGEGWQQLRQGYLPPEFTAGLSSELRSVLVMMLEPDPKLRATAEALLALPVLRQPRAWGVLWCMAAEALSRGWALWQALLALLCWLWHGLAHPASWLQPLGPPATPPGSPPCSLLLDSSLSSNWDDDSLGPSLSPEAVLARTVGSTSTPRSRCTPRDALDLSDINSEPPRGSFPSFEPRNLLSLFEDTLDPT
Briefly: Inhibition assay for PKMYT1 enzyme activity (ADP-Glo). The class given is biochemical. Particulars: MYT1 2 ng/μL, ATP 25 μM, substrate CDK1 20 ng/μL, 40 min reaction, read-out: IC50 values of compounds for PKMYT1 inhibition activity. Here is the method: Experimental principle: After co-incubation of PKMYT1 with the compound, the substrate CDK1 was phosphorylated under the action of ATP. ADP produced by the reaction was quantified using an ADP-Glo™ assay kit from Promega to reflect the enzyme activity.
Experimental method: Using the Echo liquid handler, the test compound was diluted to different concentrations in dimethyl sulfoxide (DMSO) and transferred to a 384-well plate. Thus, the final concentration of the compound in the reaction system started at 1 μM and was subjected to a 3-fold serial dilution, with the final DMSO concentration maintained at 1%. 50 nL/well of the test compound solution was added. 3 μL/well of MYT1 diluted with Kinase Dilution Buffer was then added. […] After incubation for 30 min, the fluorescence signal values were measured using an Envision microplate reader.
The % compound inhibition was calculated and fitted using XLfit software to obtain the IC50 value of the compound. […]
Herein, the experimental well, blank well, and DMSO group refer to the fluorescence signal values recorded from the experimental group, blank group, and DMSO group, respectively.
The inhibitory activity of the compounds of the present application on PKMYT1 was determined by the above assay, and the IC50 values obtained are as shown in Table 1.
As to `Cc1ccc(O)c(C)c1-n1c(N)c2c3c(ncnc31)-c1ccccc1NC2=O` [Compound 1, 5-amino-4-(3-hydroxy-2,6-dimethylphenyl)-4,7-dihydro-6H-1,3,4,7-tetraazadibenzo[cd,f]azulen-6-one], the IC50 was found to be 8.8 nM.
Still for that read-out and setting: for `Cc1nc2c3c(c(N)n(-c4c(C)ccc(O)c4C)c3n1)C(=O)Nc1ccccc1-2` [Compound 2, 5-amino-4-(3-hydroxy-2,6-dimethylphenyl)-2-methyl-4,7-dihydro-6H-1,3,4,7-tetraazadibenzo[cd,f]azulen-6-one] the value was 5.7 nM.

The next test concerns HCC1569 cells. Briefly: Inhibition of tumor cell proliferation (CTG, HCC1569). Particulars: Homo sapiens, 168 h, 7 days incubation, CTG readout, read-out: IC50 of compounds for inhibition of HCC1569 cell growth. The class given is cell-based. Here is the method:
Experimental principle: The compound was incubated with tumor cells for 7 days, and ATP in viable cells was quantified using the CTG kit from Promega to evaluate the effect of the compound on tumor cell proliferation.
Experimental method: The cultured cells were resuspended after being rinsed with PBS (for adherent cells) and digested with 0.25% Trypsin-EDTA, followed by cell counting to determine cell density and viability. 3000 HCC1569 cells/well were diluted with RPMI Medium 1640 containing 10% FBS, added to a 96-well plate (90 μL/well), and cultured in an incubator at 37° C. with 5% CO2 for 24 h. The test compound was diluted to different concentrations in dimethyl sulfoxide (DMSO) and added to a 96-well plate. Thus, the final concentration of the compound in the reaction system started at 25 μM and was subjected to a 4-fold serial dilution, with the final DMSO concentration maintained at 0.25%. The compound and cells were further incubated at 37° C. with 5% CO2 for 7 days. 50 μL/well of CTG was then added to measure the inhibitory effect of the compound on tumor cell growth, and the inhibition rate and half-maximal inhibitory concentration (IC50) were calculated.
The % compound inhibition was calculated and fitted using XLfit software to obtain the IC50 of the compound.
Blank wells and DMSO wells were set up. The blank well contained 100 μL of RPMI Medium 1640 with 10% FBS, where the inhibition rate of the compound on tumor cell growth was considered 100%. The DMSO well contained 0.25% DMSO added to the cell well, where the inhibition rate of the compound on tumor cell growth was considered 0%.
On to `Cc1ccc(O)c(C)c1-n1c(N)c2c3c(ncnc31)-c1ccccc1NC2=O` [Compound 1, 5-amino-4-(3-hydroxy-2,6-dimethylphenyl)-4,7-dihydro-6H-1,3,4,7-tetraazadibenzo[cd,f]azulen-6-one], for which the IC50 came to 42 nM.
Still for that read-out and setting: for `Cc1nc2c3c(c(N)n(-c4c(C)ccc(O)c4C)c3n1)C(=O)Nc1ccccc1-2` [Compound 2, 5-amino-4-(3-hydroxy-2,6-dimethylphenyl)-2-methyl-4,7-dihydro-6H-1,3,4,7-tetraazadibenzo[cd,f]azulen-6-one] the value was 22 nM; for `Cc1nc2c3c(c(N)n(-c4c(C)ccc(O)c4C)c3n1)C(=O)Nc1scnc1-2` [Compound 38, 5-amino-4-(3-hydroxy-2,6-dimethylphenyl)-2-methyl-4,7-dihydro-6H-8-thia-1,3,4,7,10-pentaazabenzo[cd]cyclopenta[f]azulen-6-one], 92 nM; for `Cc1nc2c3c(c(N)n(-c4c(C)ccc(O)c4C)c3n1)C(=O)NCc1c-2ccnc1OC(F)F` [Compound 39, 2-amino-6-(difluoromethoxy)-1-(3-hydroxy-2,6-dimethylphenyl)-11-methyl-4,5-dihydro-1,4,7,10,12-pentaazabenzo[4,5]cyclooctatetraeno[1,2,3-cd]inden-3(1H)-one], 81.9 nM.
Same read-out and setting: for `Cc1nc2c3c(c(N)n(-c4c(C)ccc(O)c4C)c3n1)C(=O)NCc1c-2ccnc1OCF` [Compound 40, 2-amino-6-(fluoromethoxy)-1-(3-hydroxy-2,6-dimethylphenyl)-11-methyl-4,5-dihydro-1,4,7,10,12-pentaazabenzo[4,5]cyclooctatetraeno[1,2,3-cd]inden-3(1H)-one] the value was 87.6 nM.
On to `Cc1nc2c3c(c(N)n(-c4c(C)ccc(O)c4C)c3n1)C(=O)NCc1c-2ccnc1OC(F)(F)F` [Compound 41, 2-amino-1-(3-hydroxy-2,6-dimethylphenyl)-11-methyl-6-(trifluoromethoxy)-4,5-dihydro-1,4,7,10,12-pentaazabenzo[4,5]cyclooctatetraeno[1,2,3-cd]inden-3(1H)-one], for which the IC50 was 86.1 nM.
On to `Cc1nc2c3c(c(N)n(-c4c(C)ccc(O)c4C)c3n1)C(=O)Nc1c-2cnn1C(F)F` [Compound 42, 5-amino-8-(difluoromethyl)-4-(3-hydroxy-2,6-dimethylphenyl)-2-methyl-7,8-dihydro-1,3,4,7,8,9-hexaazabenzo[cd]cyclopenta[f]azulen-6(4H)-one], for which the half-maximal inhibitory concentration (IC50) turned out to be 46.3 nM.
Still for that read-out and setting: for `COCCn1ncc2c1NC(=O)c1c(N)n(-c3c(C)ccc(O)c3C)c3nc(C)nc-2c13` [Compound 43, 5-amino-4-(3-hydroxy-2,6-dimethylphenyl)-8-(2-methoxyethyl)-2-methyl-7,8-dihydro-1,3,4,7,8,9-hexaazabenzo[cd]cyclopenta[f]azulen-6(4H)-one] the value was 291 nM.
Regarding `Cc1ccc(O)c(C)c1-n1c(N)c2c3c(c(C)c(C)nc31)-c1nn(C)cc1NC2=O` [Compound 44, 5-amino-4-(3-hydroxy-2,6-dimethylphenyl)-1,2,9-trimethyl-7,9-dihydro-3,4,7,9,10-pentaazabenzo[cd]cyclopenta[f]azulen-6(4H)-one], the half-inhibitory concentration (IC50) worked out at 55.2 nM.
Regarding `Cc1nc2c3c(c(N)n(-c4c(C)ccc(O)c4C)c3n1)C(=O)NCc1c-2ccnc1C#N` [Compound 45, 2-amino-1-(3-hydroxy-2,6-dimethylphenyl)-11-methyl-3-oxo-1,3,4,5-tetrahydro-1,4,7,10,12-pentaazabenzo[4,5]cyclooctatetraeno[1,2,3-cd]indene-6-carbonitrile], the IC50 was found to be 194 nM.
On to `Cc1nc2c3c(c(N)n(-c4c(C)ccc(O)c4C)c3n1)C(=O)NCc1c-2ccnc1C1CC1` [Compound 46, 2-amino-6-cyclopropyl-1-(3-hydroxy-2,6-dimethylphenyl)-11-methyl-4,5-dihydro-1,4,7,10,12-pentaazabenzo[4,5]cyclooctatetraeno[1,2,3-cd]inden-3(1H)-one], for which the IC50 is 113 nM.
On the same count and under the same terms, for `CCOc1nccc2c1CNC(=O)c1c(N)n(-c3c(C)ccc(O)c3C)c3nc(C)nc-2c13` [Compound 47, 2-amino-6-ethoxy-1-(3-hydroxy-2,6-dimethylphenyl)-11-methyl-4,5-dihydro-1,4,7,10,12-pentaazabenzo[4,5]cyclooctatetraeno[1,2,3-cd]inden-3(1H)-one] the value was 32 nM; for `Cc1nc2c3c(c(N)n(-c4c(C)ccc(O)c4C)c3n1)C(=O)NCc1c-2ccc(F)c1C#N` [Compound 49, 2-amino-7-fluoro-1-(3-hydroxy-2,6-dimethylphenyl)-11-methyl-3-oxo-1,3,4,5-tetrahydro-1,4,10,12-tetraazabenzo[4,5]cyclooctatetraeno[1,2,3-cd]inden-6-carbonitrile], 20.9 nM.
